Data as given in patent US11311537B2, “Diagnosis and treatment of lymphoproliferative disorders with PARP inhibitors” (UNIVERSITY OF MIAMI, priority 2016, dated 2022).
Entries after “also recorded” stand apart in the source; their conditions may differ.

Tests used:
[1] = tested on: DLBCL LMO2+ cell lines (OCI-Ly8, OCI-Ly19, DOHH2); test: Colony formation assay, olaparib in combination with genotoxic agents (Combination Index); assay type: cell-based, human
Excerpt: Only colonies with 50 or more cells where counted. *P<0.001, Two-way ANOVA. […] CI, Combination Index (CI<1 indicates a synergistic effect).

[2] = tested on: DLBCL LMO2- and control cell lines (OCI-Ly1, U2932, IMR90, HCC1187); test: MTS cell proliferation assay; assay type: cell-based, human
Experimental: (§1) Proliferation and cell cycle studies: Cell proliferation was studied using cell titer 96 Aqueous Non-radioactive cell proliferation (MTS) kit from Promega. This assay was performed following manufacturer's instructions. For cell cycle studies, cells were fixed with 70% cold ethanol and incubated overnight at 4° C. Next, cells were washed once with 1×PBS and incubated with 50 μg/ml Propidium Iodide (Invitrogen) and RNAse (0.1 mg/ml) for 30 min. Cells were analyzed using a flow cytometer (BD FACS Canto-II analyzer).

[3] = tested on: DLBCL LMO2+ cell lines (OCI-Ly8, OCI-Ly19 and DOHH2); test: MTS cell proliferation assay; assay type: cell-based, human; conditions: OCI-Ly8, OCI-Ly19, DOHH2 compared with IMR90, HCC1187, OCI-Ly1, U2932; p<0.001 by ANOVA
Experimental: as §1

DLBCL LMO2+ cell lines [4] = test: Colony-forming assay; assay type: cell-based, human; conditions: olaparib pretreatment 48 h, colonies after 14 days
Experimental: Colony-forming assay: Clonogenic assays were performed as described elsewhere (McDonnell, Oncogene, 31(32), 3733-3740 (2012)). In total, 500 cells were pretreated with indicated olaparib concentration (0; 1; 10; 100; 1,000; and 10,000 nM) for 48 h and seeded in triplicate in MethoCult conditioned media (Stem Cell Technologies, Vancouver, Canada). After 14 days, macroscopic colonies were stained with iodonitrotetrazolium chloride (Sigma Aldrich) overnight and counted. Only colonies with 50 or more cells were counted.

[5] = breast cancer treated patients; cited from earlier work
[6] = tested on: MOLT16 (LMO2-positive) versus Jurkat (LMO2-negative); test: MTS cell proliferation assay in T-ALL cell lines; assay type: cell-based, human; conditions: LMO2 expressing versus LMO2 negative T-ALL cell line, 4 days, p<0.001 by ANOVA
Excerpt: (§2) FIG. 7A, quantification of cell proliferation via MTS assay in MOLT16 (LMO2+) and Jurkat (LMO2−) T cell lymphoblastic leukemia cell lines exposed to different concentrations of olaparib during 4 days. *P<0.001, Two-way ANOVA. FIG. 7B, quantification of the flow cytometer results for Annexin V staining after 4 days in presence or absence of indicated concentrations of olaparib for cell death analysis in the indicated T cell lymphoblastic leukemia cell lines.
as §1

[7] = tested on: OCI-Ly19 xenografts (LMO2 positive); test: DLBCL subcutaneous xenograft model; assay type: in vivo, NOD/SCID mice; conditions: for lifespan (survival): olaparib 50 mg/kg IP, 21 days, vs control group
Excerpt: (§3) Subcutaneous xenograft tumors were generated by human DLBCL cells (OCI-Ly19 or OCI-Ly1) injected into NOD/SCID (5 million cells/mouse). Treatment started when tumor reached 100 mm^3 (˜10 days post-injection). FIG. 5A, Kaplan-Meier plots: OCI-Ly19 (n=per group: n=8 CTL, n=9 olaparib, n=5 RCHOP, n=5 RCHOP+olaparib) and OCI-Ly1 (n=5 per group). Mice were euthanized when the tumor volume reached 1500 mm^3 in accordance with the institutional guidelines. Statistical analysis was done by the log rank (Mantel-Cox) test. FIG. 5B, Ex vivo analyses of the tumors. The xenografts were generated as described above. Shown are representative FACS analyses of the OCI-Ly19 tumor cells exposed or not to olaparib during 3 days and stained with Annexin V and propidium iodide (PI). FIG. 5C, Tunnel assays in OCI-Ly19 tumor samples exposed or not to olaparib.
(§4) All mice studies were conducted after approval of IACUC protocol. For DLBCL xenograft model, five-week-old female NOD/SCID mice (Harlan's) were subcutaneously injected with DLBCL cell line OCI-LY19 (5×10^6 cells/mouse) into the right flank. Once tumors reached 100 mm^3, mice were subdivided into two experimental groups (n=5-7/group). One group received buffer solution (1×PBS) and the other group received Olaparib (50 mg/kg; LC Labs, MA) for 21 consecutive days via IP injection. In separate experiments, one group received buffer solution (1×PBS), second group received Olaparib (50 mg/kg; LC Labs, MA), third group RCHOP (Rituximab 20 mg/kg, i.v. for a single dose on D1; cyclophosphamide, 40 mg/kg, D1; doxorubicin, 3.3 mg/kg, i.v. D1; vincristine, 0.5 mg/kg, i.v. D1; and prednisone, 0.2 mg/kg, every day by oral gavage on D1-5 and fourth group combination of Olaparib with RCHOP. Tumor bearing mice were observed every two days for tumor volume and weight loss was measured using standard calipers. Once the tumor volume exceeded 1500 mm^3 or the mouse […] dropped more than 10% total body weight, the mice were sacrificed.

[8] = tested on: OCI-Ly1 xenografts (LMO2 negative); test: DLBCL subcutaneous xenograft model; assay type: in vivo, NOD/SCID mice; conditions: olaparib 50 mg/kg
Excerpt: as §3, §4

OCI-Ly8 = test: MTS cell proliferation assay, olaparib IC50; assay type: cell-based; conditions: Homo sapiens; OCI-Ly8, DLBCL LMO2+
Experimental: as §1

OCI-19 = test: MTS cell proliferation assay, olaparib IC50; assay type: cell-based; conditions: Homo sapiens; OCI-19, DLBCL LMO2+
Experimental: as §1

DOHH2 = test: MTS cell proliferation assay, olaparib IC50; assay type: cell-based; conditions: Homo sapiens, DOHH-2; DOHH2, DLBCL LMO2+
Experimental: as §1

[9] = tested on: primary human DLBCL tumors expressing or not LMO2; test: MTS assay in primary human tumor samples; assay type: cell-based; conditions: LMO2- and reactive follicular hyperplasia
Excerpt: FIGS. 6A-6C: Olaparib and doxorubicin show synergy to kill primary DLBCL cells expressing LMO2. FIG. 6A, MTS assay to evaluate the effect of exposure to different concentrations of olaparib alone or in combination with doxorubicin in primary human DLBCL tumors expressing or not LMO2 and a Reactive follicular hyperplasia (LMO2−). CI, Combination Index (CI<1 indicates a synergistic effect). FIG. 6B, Western blots showing LMO2 level in human DLBCL cell lines (OCI-Ly1 (LMO2 negative), OCI-Ly19 (LMO2 positive), human primary lymphoblasts (HCC1187)), and primary human tumors (LMO2+, DLBCL expressing LMO2, LMO2−, DLBCL not expressing LMO2) and RFH-Reactive follicular hyperplasia not expressing LMO2. GAPDH was used as loading control. FIG. 6C, immunohistochemistry (IHC) for LMO2 in primary human DLBCL samples used for FIGS. 6A and 6B. H&E, hematoxylin and eosin staining.
Primary tumors were obtained from DLBCL or no DLBCL patients following appropriate consent of the IRB approved protocol and single cell suspension generated using standard techniques.
as §1

[10] = tested on: MOLT16 (LMO2-positive) versus Jurkat (LMO2-negative); test: Annexin V cell death analysis in T-ALL cell lines; assay type: cell-based, human; conditions: LMO2 expressing versus LMO2 negative T-ALL cell line, 4 days
Excerpt: as §2

OCI-Ly8 cells = test: gammaH2AX DNA damage foci (immunofluorescence); assay type: cell-based, human; conditions: OCI-Ly8, 24 hs exposure
Experimental: Immunofluorescence studies: For studying DNA break repair, DNA double-strand breaks were induced either by exposing the cells to ionization radiation (IR). DLBCL cell lines were exposed to gamma ray source at 10 Gy (cobalt 60 irradiator) and U2OS cells were exposed to 4 Gy. Alternatively double-stranded breaks were induced by adding Doxorubicin (12.5 ng/ml) to the culture during 16-20 hs. Cells were attached on a glass slide pre-coated with poly-lysine for 30 min. Cells were fixed with 4% Para-formaldehyde in 1×PBS for 15 min at room temperature. After fixing, cells were permeabilized using blocking solution (1 mg/ml BSA, 5% Goat/Horse normal serum, 0.5% TritonX-100) for 30 min. Cells were incubated with primary antibodies diluted in blocking solution for 1 h. Cells were washed three times with 1×PBS 5 min each. After washing, cells were incubated with secondary antibodies diluted in blocking solution, Alexa Fluor 488 or Alexa Fluor 594 for 30 min. Cells were then washed with 1×PBS twice for 5 min each wash. Nuclear DNA was visualized via DAPI (1 μg/ml) (Sigma Aldrich) staining for 15 min. Finally, cells were washed with 1×PBS for 15 min to remove excess stain and mounted with Prolong Gold antifade reagent (Invitrogen). Images were acquired using a Leica DMI6000 B Fluorescence microscope.

DLBCL LMO2+ cell lines [11] = test: Cell death analysis by Annexin V / propidium iodide flow cytometry; assay type: cell-based, human; conditions: 4 days, 1 μM olaparib
Excerpt: FIG. 4A, MTS assay to evaluate effect of olaparib on the proliferation of human lymphoblasts (HCC1187), human primary lung fibroblasts (IMR90) and human lymphomas cells (LMO2 negative (U2932, OCI-Ly1) and LMO2 positive (DOHH2, OCI-Ly8, OCI-Ly19)). *P<0.0001. Two-way ANOVA. FIG. 4B, quantification of colony formation assays in OCI-Ly1, DOHH2, VaL and Val (LMO2 KO)-LMO2-null Val cells exposed to different concentrations of olaparib. Only colonies with 50 or more cells where counted. *P<0.001, Two-way ANOVA. FIG. 4C, quantification of the flow cytometer results for Propidium Iodide (PI) and Annexin V staining after 4 days in presence or absence of 1 μM olaparib for cell death analysis in the indicated lymphoma cell lines. FIG. 4D, representative pictures of colony formation assay quantified in FIG. 4B using DOHH2 cells. […] CI, Combination Index (CI<1 indicates a synergistic effect). FIG. 4F, quantification of γH2AX DNA damage foci in OCI-Ly8 cells exposed to or not exposed to olaparib during 24 hs.

For N.N.O=C([O-])C1(C(=O)[O-])CCC1.[Pt+2] [carboplatin], the “synergy with olaparib (carboplatin)” value ([1]; olaparib + carboplatin, OCI-Ly19 and DOHH2) was “showed synergy”.

With O=C(c1cc(Cc2n[nH]c(=O)c3ccccc23)ccc1F)N1CCN(C(=O)C2CC2)CC1 [olaparib] the “effect on DLBCL LMO2- and control cell lines” value [2] was “no or minimal effect”, the cell proliferation [3] was “decreases proliferation; also recorded: statistically significant (p<0.001 by ANOVA) decrease in cell proliferation” and the synergy with doxorubicin ([1]; olaparib + doxorubicin, three DLBCL LMO2+ cell lines, preliminary studies) was “synergistic”. For the same compound, the colony formation (DLBCL LMO2+ cell lines [4]) was “pronounced olaparib-mediated decrease in colony formation”, the “concentration observed in the blood” value [5] was 2000 nM and the cell proliferation [6] was “decreases proliferation”. For the same compound, the cell proliferation ([6]; listed as Olaparib) was “statistically significant (p<0.001 by ANOVA) decrease in cell proliferation”, the “cell death in tumors (Annexin V, PI, Tunnel assay)” value ([7]; OCI-Ly19 tumors, ex vivo analysis) was “increase in cell death” and the “lifespan (survival)” value ([7]; OCI-Ly19 xenografts) was “increased the lifespan”. For the same compound, the “lifespan (survival)” value ([7]; OCI-Ly19 xenografts, listed as Olaparib) was “prolongs survival”, the “lifespan in combination with RCHOP” value ([7]; OCI-Ly19 xenografts, olaparib + RCHOP vs RCHOP) was “increased the life-span” and the “tumor growth in vivo” value ([7]; human DLBCL cells expressing LMO2, murine xenograft) was “slows growth”. For the same compound, the “lifespan (survival)” value [8] was “did not produce any effect”, the IC50 (OCI-Ly8) was 800 nM and the IC50 (OCI-19) was 130 nM. The IC50 (DOHH2) was 120 nM, the “proliferation capacity of primary tumor samples, olaparib alone” value [9] was “only affected the proliferation capacity of the DLBCL sample expressing LMO2 protein” and the “proliferation capacity of primary tumor samples, olaparib in combination with doxorubicin” value [9] was “only affected the proliferation capacity of the DLBCL sample expressing LMO2 protein”. For the same compound, the “proliferation capacity of primary tumor samples, olaparib in combination with doxorubicin” value ([9]; listed as Olaparib) was “show synergy”, the cell death [10] was “induces cell apoptosis” and the cell death ([10]; listed as Olaparib) was “increase in cell death”. For the same compound, the “DNA damage (γH2AX foci)” value (OCI-Ly8 cells) was “increased DNA damage” and the “cell death via apoptosis” value (DLBCL LMO2+ cell lines [11]) was “induces cell apoptosis; also recorded: increased cell death via apoptosis”.
